Assay results taken from patent US20260108546A1 (ELI LILLY AND COMPANY, priority 2024, published 2026).

Molecular target: T1, hGIP-R (Homo sapiens, UniProt P48546)
T1 construct: expressed in transfected cells; host or cells: HEK-293 clonal cell lines
T1 sequence (P48546 22-466): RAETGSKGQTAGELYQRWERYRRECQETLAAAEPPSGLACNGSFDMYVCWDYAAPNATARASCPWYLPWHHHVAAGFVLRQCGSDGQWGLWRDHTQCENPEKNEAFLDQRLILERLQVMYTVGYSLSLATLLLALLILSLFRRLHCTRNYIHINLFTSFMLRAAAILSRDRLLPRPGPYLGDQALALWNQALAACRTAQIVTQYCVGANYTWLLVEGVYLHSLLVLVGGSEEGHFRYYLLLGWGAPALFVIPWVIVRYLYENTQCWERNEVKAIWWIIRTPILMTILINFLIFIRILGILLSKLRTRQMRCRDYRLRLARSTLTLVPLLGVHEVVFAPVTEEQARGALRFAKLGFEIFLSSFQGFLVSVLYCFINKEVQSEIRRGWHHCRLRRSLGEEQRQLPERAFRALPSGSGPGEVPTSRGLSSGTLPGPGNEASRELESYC
Experiment: Functional hGIP-R Assay (cAMP formation, HTRF)
Assay type: cell-based
Conditions: for Emax: cAMP efficacy, percent of maximal response to GIP(1-42)OH, 37° C., 0.1% bovine casein, arithmetic mean ± SEM; for EC50: cAMP potency, HEK-293 cells expressing hGIP-R, incubated at 37° C. in the presence of 0.1% bovine casein, geometric mean, read-out: Human GIP-R EC50, nM (SEM, n)
Summary of the method: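 HEK-293 cells expressing hGIP-R were given a 20-point compound series in DMEM with 0.1% casein, 250 μM IBMX, 1% DMSO, 30 min at 37 °C. cAMP was read by HTRF against a standard curve, expressed as % of human GIP (1-42) OH maximum; EC50 and Emax came from four-parameter fits.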

SMILES	Emax	EC50
Cc1c(-c2cc(C(F)(F)F)nn2CC(C)(C)NC(=O)[C@@H](Cc2cnn(C(F)F)c2)N2CC[C@@]3(C[C@@H]3c3ccc(-c4cnc5nn(C)cc5c4)cc3)C2=O)cn(C)c(=O)c1C#N [Example 128, (R)-N-(1-(5-(5-Cyano-1,4-dimethyl-6-oxo-1,6-dihydropyridin-3-yl)-3-(trifluoromethyl)-1H-pyrazol-1-yl)-2-methylpropan-2-yl)-3-(1-(difluoromethyl)-1H-pyrazol-4-yl)-2-((1R,3R)-1-(4-(2-methyl-2H-pyrazolo[3,4-b]pyridin-5-yl)phenyl)-4-oxo-5-azaspiro[2.4]heptan-5-yl)propanamide]	85.2 ± 1.24%	163 nM
Cc1nc(C2CC2)nc(O)c1-c1cc(C(F)(F)F)nn1CC(C)(C)NC(=O)[C@@H](Cc1cnn(C(F)F)c1)N1CC[C@@]2(C[C@@H]2c2ccc(-c3cnc4nn(C)cc4c3)cc2)C1=O [Example 122, (R)-N-(1-(5-(2-Cyclopropyl-4-hydroxy-6-methylpyrimidin-5-yl)-3-(trifluoromethyl)-1H-pyrazol-1-yl)-2-methylpropan-2-yl)-3-(1-(difluoromethyl)-1H-pyrazol-4-yl)-2-((1R,3R)-1-(4-(2-methyl-2H-pyrazolo[3,4-b]pyridin-5-yl)phenyl)-4-oxo-5-azaspiro[2.4]heptan-5-yl)propanamide]	90.8 ± 7.25%	103 nM
CC(=O)N1CCN(c2ccc(C3CC34CCN([C@H](Cc3cnn(C(F)F)c3)C(=O)NC(C)(C)Cn3nc(C(F)(F)F)cc3-c3cnc(C)nc3)C4=O)c(C(F)(F)F)n2)CC1 (single isomer, unassigned; isomer 1) [Example 116]	23.1 ± 0.52%	127 nM
Cn1cc2cc(-c3ccc([C@H]4C[C@@]45CCN([C@H](Cc4cnn(C(F)F)c4)C(=O)NC(C)(C)Cn4nc(C(F)(F)F)cc4-c4ccc(C#N)nc4)C5=O)cc3)cnc2n1 [Example 143, (R)-N-(1-(5-(6-Cyanopyridin-3-yl)-3-(trifluoro-methyl)-1H-pyrazol-1-yl)-2-methylpropan-2-yl)-3-(1-(difluoro-methyl)-1H-pyrazol-4-yl)-2-((1R,3R)-1-(4-(2-methyl-2H-pyrazolo[3,4-b]pyridin-5-yl)phenyl)-4-oxo-5-azaspiro[2.4]heptan-5-yl)propanamide]	72.8 ± 3.32%	57.7 nM
Cn1cc(C[C@@H](NC(=O)[C@H]2C[C@@H]2c2ccc(-c3cnc4nn(C)cc4c3)cc2)C(=O)NC(C)(C)Cn2nc(C(F)(F)F)cc2C2CCC2)cn1 [Example 51, (1S,2S)-N—((R)-1-((1-(5-Cyclobutyl-3-(trifluoromethyl)-1H-pyrazol-1-yl)-2-methylpropan-2-yl)amino)-3-(1-methyl-1H-pyrazol-4-yl)-1-oxopropan-2-yl)-2-(4-(2-methyl-2H-pyrazolo[3,4-b]pyridin-5-yl)phenyl)cyclopropane-1-carboxamide]	120 ± 6.49%	62.7 nM
CC(C)(Cn1cc(C(F)(F)F)cn1)NC(=O)[C@@H](Cc1cnc2ncccn12)NC(=O)[C@H]1C[C@@H]1c1ccc(-c2cnc3nccn3c2)cc1 [Example 47, (1S,2S)-N-((R)-3-(Imidazo[1,2-a]pyrimidin-3-yl)-1-((2-methyl-1-(4-(trifluoromethyl)-1H-pyrazol-1-yl)propan-2-yl)amino)-1-oxopropan-2-yl)-2-(4-(imidazo[1,2-a]pyrimidin-6-yl)phenyl) cyclopropane-1-carboxamide]	84.6 ± 1.49%	41.5 nM
CN(C(=O)[C@H]1C[C@@H]1c1ccc(-c2cnc3nn(C)cc3c2)cc1)[C@H](Cc1cnn(C)c1)C(=O)NC(C)(C)Cn1nc(C(F)(F)F)cc1-c1cn[nH]n1 [Example 70, (1S,2S)-N-((R)-1-((1-(5-(2H-1,2,3-Triazol-4-yl)-3-(trifluoromethyl)-1H-pyrazol-1-yl)-2-methylpropan-2-yl)amino)-3-(1-methyl-1H-pyrazol-4-yl)-1-oxopropan-2-yl)-N-methyl-2-(4-(2-methyl-2H-pyrazolo [3,4-b]pyridin-5-yl)phenyl)cyclopropane-1-carboxamide]	102 ± 2.2%	158 nM

Stronger by EC50, values ahead:

Emax	EC50	SMILES
115 ± 1.41%	15.3 nM	Cn1cc(C[C@@H](NC(=O)[C@H]2C[C@@H]2c2ccc(-c3cnc4nn(C)cc4c3)cc2F)C(=O)NC(C)(C)Cn2nc(C(F)(F)F)cc2-c2cn[nH]n2)cn1 [Example 93, (1S,2S)-N—((R)-1-((1-(5-(2H-1,2,3-Triazol-4-yl)-3-(trifluoromethyl)-1H-pyrazol-1-yl)-2-methylpropan-2-yl)amino)-3-(1-methyl-1H-pyrazol-4-yl)-1-oxopropan-2-yl)-2-(2-fluoro-4-(2-methyl-2H-pyrazolo[3,4-b]pyridin-5-yl)phenyl)cyclopropane-1-carboxamide]
101%	35.4 nM	Cc1ccc2cc(-c3ccc([C@H]4C[C@@H]4C(=O)N[C@H](Cc4cnn(C)c4)C(=O)NC(C)(C)Cn4nc(C(F)(F)F)cc4-c4cn[nH]n4)cc3)cnc2n1 [Example 94, (1S,2S)-N—((R)-1-((1-(5-(2H-1,2,3-Triazol-4-yl)-3-(trifluoromethyl)-1H-pyrazol-1-yl)-2-methylpropan-2-yl)amino)-3-(1-methyl-1H-pyrazol-4-yl)-1-oxopropan-2-yl)-2-(4-(7-methyl-1,8-naphthyridin-3-yl)phenyl)cyclopropane-1-carboxamide]
113 ± 4.23%	38.1 nM	COCn1ncc(-c2cc(C(F)(F)F)nn2CC(C)(C)NC(=O)[C@@H](Cc2cnn(C)c2)NC(=O)[C@H]2C[C@@H]2c2ccc(-c3cnc4nn(C)cc4c3)cc2)n1 [Example 65, (1S,2S)-N—((R)-1-((1-(5-(2-(Methoxymethyl)-2H-1,2,3-triazol-4-yl)-3-(trifluoromethyl)-1H-pyrazol-1-yl)-2-methylpropan-2-yl)amino)-3-(1-methyl-1H-pyrazol-4-yl)-1-oxopropan-2-yl)-2-(4-(2-methyl-2H-pyrazolo[3,4-b]pyridin-5-yl)phenyl)cyclopropane-1-carboxamide]
72.6 ± 3.47%	12.6 nM	CC(C)(Cc1ccc(F)cc1)NC(=O)[C@@H](Cc1cnc2ncccn12)NC(=O)[C@H]1C[C@@H]1c1ccc(NC(=O)C2CCC(F)(F)CC2)cc1 [Example 49, 4,4-Difluoro-N-(4-((1S,2S)-2-(((R)-1-((1-(4-fluorophenyl)-2-methylpropan-2-yl)amino)-3-(imidazo[1,2-a]pyrimidin-3-yl)-1-oxopropan-2-yl)carbamoyl)cyclopropyl)phenyl)cyclohexane-1-carboxamide]
45.5 ± 2.18%	1.22 nM	Cn1cc2cc(-c3ccc(C4CC45CCN([C@H](Cc4cnn(C(F)F)c4)C(=O)NC(C)(C)Cn4nc(C(F)(F)F)cc4-c4ccc(=O)n(C)c4)C5=O)c(C(F)(F)F)n3)cnc2n1 (single isomer, unassigned; isomer 1) [Example 113]
93.3 ± 0.0968%	20.3 nM	Cn1cc2cc(-c3ccc([C@H]4C[C@@]45CCN([C@H](Cc4cnn(C(F)F)c4)C(=O)NC(C)(C)Cn4nc(C(F)(F)F)cc4-c4ccc(C(N)=O)[nH]c4=O)C5=O)cc3)cnc2n1 [Example 132, 5-(1-(2-((R)-3-(1-(Difluoromethyl)-1H-pyrazol-4-yl)-2-((1R,3R)-1-(4-(2-methyl-2H-pyrazolo[3,4-b]pyridin-5-yl)phenyl)-4-oxo-5-azaspiro[2.4]heptan-5-yl)propanamido)-2-methylpropyl)-3-(trifluoromethyl)-1H-pyrazol-5-yl)-6-oxo-1,6-dihydropyridine-2-carboxamide]
102 ± 3.65%	13.6 nM	CC(C)(Cn1cc(C(F)(F)F)cn1)NC(=O)[C@@H](Cc1cnc2ncccn12)NC(=O)[C@H]1C[C@@H]1c1ccc(-c2cnc3nc(C4CC(F)(F)C4)cn3c2)cc1 [Example 74, (1S,2S)-2-(4-(2-(3,3-Difluorocyclobutyl)imidazo[1,2-a]pyrimidin-6-yl)phenyl)-N-((R)-3-(imidazo[1,2-a]pyrimidin-3-yl)-1-((2-methyl-1-(4-(trifluoromethyl)-1H-pyrazol-1-yl)propan-2-yl)amino)-1-oxopropan-2-yl)cyclopropane-1-carboxamide]
80.3 ± 0.191%	1.79 nM	[2H]C([2H])([2H])n1cc(C[C@H](C(=O)NC(C)(C)Cn2nc(C(F)(F)F)cc2-c2cnc(C)nc2)N2CC[C@@]3(C[C@@H]3c3ccc(-c4cnc5nn(C)cc5c4)cc3Cl)C2=O)cn1 (single isomer, unassigned; isomer 1) [Example 114]
79.8 ± 9.84%	10.7 nM	CC(C)(Cn1cc(C(F)(F)F)cn1)NC(=O)[C@@H](Cc1cnc2ncccn12)NC(=O)[C@H]1C[C@@H]1c1ccc(NC(=O)C2CCC(F)(F)CC2)cc1 [Example 45, 4,4-Difluoro-N-(4-((1S,2S)-2-(((R)-3-(imidazo[1,2-a]pyrimidin-3-yl)-1-((2-methyl-1-(4-(trifluoromethyl)-1H-pyrazol-1-yl)propan-2-yl)amino)-1-oxopropan-2-yl)carbamoyl)cyclopropyl)phenyl)cyclohexane-1-carboxamide]
